What was measured:
[1] = tested on: HL-60 cells; assay: Cell growth inhibition (ATPlite), HL-60; assay type: cell-based, human; conditions: HL-60, 72 hours
Protocol: (§1) The human acute promyelocytic leukemia cell line HL-60, the acute myeloid leukemia cell line Kasumi-1, the lung carcinoma cell line A549, the embryonic kidney cell line HEK293, and the hepatocellular carcinoma cell line HepG2 were purchased from ATCC. HL-60 and A549 cells were grown in RPMI-1640 media containing 10% fetal bovine serum (FBS). Kasumi-1 cells were grown in RPMI-1640 media containing 20% FBS. HEK293 and HepG2 cells were grown in Eagles Minimal Essential Media containing 10% FBS. Cells were plated in 96-well microtiter plates at a density of either 2000 cells/well (A549 cells) or 5000 cells/well and incubated overnight at 37° C. Cell growth was measured by the ATPlite™ istep Kit (PerkinElmer, Waltham, Mass.) according to the manufacturer's instructions. ATPlite™ uses firefly luciferase to indirectly quantify the level of adenosine triphosphate (ATP) as a measure of proliferation and cytotoxicity of cultured mammalian cells. […] Luminescence, quantified as relative luciferase units (RLU), was measured on an Envision plate reader (PerkinElmer). For each replicate, the mean and standard deviation of the RLU at each concentration of compound was calculated. […]
HL-60 cells were plated in 96-well microtiter plates in RPMI-1640 media containing 10% FBS at a density of 5000 cells/well. […] Cell growth was measured using the ATPlite™ istep Kit. […]

[2] = tested on: Kasumi-1 cells; assay: Cell growth inhibition (ATPlite), Kasumi-1; assay type: cell-based; conditions: Homo sapiens, Kasumi-1, 72 hours, mean±SEM, n = 3, read-out: Inhibition of Tumor Cell Growth (IC50, μM) Kasumi-1
Protocol: as §1, with “cells. Compounds were diluted in the appropriate cell culture media for each cell type at incremental concentrations ranging from 0.1 nM to 100 tiM.” for “cells.”

[3] = tested on: A549 cells; assay: Cell growth inhibition (ATPlite), A549; assay type: cell-based; conditions: Homo sapiens, A549, 72 hours, mean±SEM, n = 3, read-out: Inhibition of Tumor Cell Growth (IC50, μM) A549
Protocol: as §1, with “cells. Compounds were diluted in the appropriate cell culture media for each cell type at incremental concentrations ranging from 0.1 nM to 100 tiM.” for “cells.”

[4] = tested on: HEK293 cells; assay: Cell growth inhibition (ATPlite), HEK293; assay type: cell-based; conditions: Homo sapiens, HEK293, 72 hours, mean±SEM, n = 3, read-out: Inhibition of Tumor Cell Growth (IC50, μM) HEK293
Protocol: as §1, with “cells. Compounds were diluted in the appropriate cell culture media for each cell type at incremental concentrations ranging from 0.1 nM to 100 tiM.” for “cells.”

[5] = tested on: HEPG2 cells; assay: Cell growth inhibition (ATPlite), HEPG2; assay type: cell-based; conditions: Homo sapiens, HEPG2, 72 hours, mean±SEM, n = 3, read-out: Inhibition of Tumor Cell Growth (IC50, μM) HEPG2
Protocol: as §1, with “cells. Compounds were diluted in the appropriate cell culture media for each cell type at incremental concentrations ranging from 0.1 nM to 100 tiM.” for “cells.”

[6] = tested on: HL-60 cells; assay: Induction of apoptosis (Annexin V/Sytox Red, FACS); assay type: cell-based, human; conditions: HL-60, 10 μM, 48 hours, versus vehicle (DMSO), FIG. 2
Protocol: HL-60 cells were incubated under similar conditions to the cell growth assay described above (i.e. 50,000 cell/well of a 24-well plate, incubated in cell culture media in the presence of vehicle or compound for 48 hours at 37° C. in an incubator with 5% CO2). Apoptosis was determined by using Annexin V/Sytox Red staining (Life Technologies/Invitrogen) followed by assaying with fluorescence-activated cell sorting (FACS) according to standard protocols. In this assay, vehicle constituted DMSO and the test compound (Compound 101) was diluted to 10 μM with cell culture media from a 10 mM stock solution of Compound 101 in DMSO. The results of the apoptosis assay are described in FIG. 2. […] Compound 101 decreased the number of viable cells in the assay by over 60% and produced nearly a 50% increase in necrotic cells and over a 15% increase in apoptotic cells.

[7] = tested on: Cynomolgus monkeys; assay: Blood cell induction (peripheral blood neutrophils); assay type: in vivo
Protocol: Test compound was evaluated in an animal model for the ability to increase blood cell count, and particularly peripheral blood neutrophils, according to the following protocol. A test compound (Compound 101) was formulated in DMSO:PEG400:PBS at a concentration of 2 mg/mL. Cynomolgus monkeys where then dosed with either vehicle or the test compound via an IV injection for three days. Doses were administered in the morning and then at 5, and 10 hours later. On Day four, a single dose was administered. Blood samples were then collected at the start of the experiment, at Day 4 at 3 hours, 6 hours, and 9 hours after the single dose, and at Day 7. Blood samples were collected and analyzed on a commercial hematology system (ADVIA 2120). The results for neutrophil evaluation are graphically represented in FIG. 3 for both vehicle and Compound 101.

IC50 ([1]; Homo sapiens, mean±SEM, n = 5, read-out: Inhibition of Tumor Cell Growth (IC50, μM) HL-60): 5 ± 2.8 µM | IC50 [3]: 6.1 ± 2.5 µM | IC50 [5]: 0.9 ± 0.1 µM
SMILES: Cc1cc(C)cc(N2C(=O)/C(=C(\NNC(=O)CCC(N)=O)c3ccccc3)c3ccc(C(F)(F)F)cc32)c1 [Compound 101]
effect on HL-60 cell growth (dose response curve, FIG. 1) ([1]; versus Blank): dose-dependent effect | IC50 [2]: 12.1 ± 2.4 µM | IC50 [4]: 1.4 ± 0.04 µM | increase in apoptotic cells [6]: > 15% | increase in necrotic cells [6]: ~50% | cytotoxicity at 10 µM ([6]; Homo sapiens, read-out: decrease in number of viable cells): > 60% | neutrophil count following three days without dosing ([7]; Day 7 time point): returned to a level similar to the vehicle | significance of neutrophil count increase versus vehicle ([7]; IV, Day 4, 9 hours after the single dose): statistically significant | neutrophil count versus vehicle after the three day dosing phase ([7]; IV, three doses daily for three days, single dose Day 4, Day 4 samples, FIG. 3): higher neutrophil count than vehicle

From US10420748B2, “Methods of treatment associated with the granulocyte colony-stimulating factor receptor” (LIGAND PHARMACEUTICALS INCORPORATED, priority 2013, dated 2019)
